In patent publication US12264134B2 (Merck Sharp & Dohme LLC, priority 2018, dated 2025):

molecular target: IDO1 (Homo sapiens, UniProt P14902); experiment: IDO1 Cellular Assay in HeLa Cells Stimulated with IFNγ; type: cell-based; conditions: read-out: HeLa Cell Potency, IC50
Sequence (P14902 whole entry): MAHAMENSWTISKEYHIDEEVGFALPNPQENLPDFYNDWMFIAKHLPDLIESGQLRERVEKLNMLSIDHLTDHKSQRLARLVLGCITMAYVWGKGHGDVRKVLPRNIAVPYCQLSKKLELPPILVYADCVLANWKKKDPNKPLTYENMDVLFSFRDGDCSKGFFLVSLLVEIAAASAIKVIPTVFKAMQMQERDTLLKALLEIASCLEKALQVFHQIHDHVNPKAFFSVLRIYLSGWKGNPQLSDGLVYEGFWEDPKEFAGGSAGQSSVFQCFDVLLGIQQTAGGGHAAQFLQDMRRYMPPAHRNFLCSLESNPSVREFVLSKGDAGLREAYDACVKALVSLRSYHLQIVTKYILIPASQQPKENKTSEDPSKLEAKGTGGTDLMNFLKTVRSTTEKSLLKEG

SMILES	IC50
Cc1c(N2CCN(C(=O)Cn3nc(C(=O)N4CCC(OCCO)CC4)c4c3C[C@H]3C[C@@H]43)CC2)cccc1C(F)(F)F [Example 341, 2-((3bR,4aR)-3-(4-(2-hydroxyethoxy)piperidine-1-carbonyl)-3b,4,4a,5-tetrahydro-1H-cyclopropa[3,4]cyclopenta[1,2-c]pyrazol-1-yl)-1-(4-(2-methyl-3-(trifluoromethyl)phenyl)piperazin-1-yl)ethanone]	1.64 nM
Cc1c(C(F)F)cccc1N1CCN(C(=O)Cn2nc(C(=O)N3CCN(C(=O)CO)CC3)c3c2C[C@H]2C[C@@H]32)CC1 [Example 344, 1-(4-(3-(difluoromethyl)-2-methylphenyl)piperazin-1-yl)-2-((3bR,4aR)-3-(4-(2-hydroxyacetyl)piperazine-1-carbonyl)-3b,4,4a,5-tetrahydro-1H-cyclopropa[3,4]cyclopenta[1,2-c]pyrazol-1-yl)ethanone]	6.52 nM
Cc1c(C(F)F)cccc1N1CCN(C(=O)Cn2nc(C(=O)N3CCC(OCCO)CC3)c3c2C[C@H]2C[C@@H]32)CC1 [Example 345, 1-(4-(3-(difluoromethyl)-2-methylphenyl)piperazin-1-yl)-2-((3bR,4aR)-3-(4-(2-hydroxyethoxy)piperidine-1-carbonyl)-3b,4,4a,5-tetrahydro-1H-cyclopropa[3,4]cyclopenta[1,2-c]pyrazol-1-yl)ethanone]	1.88 nM
Cc1c(C(F)F)cccc1N1CCN(C(=O)Cn2nc(C(=O)N3CCC(O)CC3)c3c2C[C@H]2C[C@@H]32)CC1 [Example 346, 1-(4-(3-(difluoromethyl)-2-methylphenyl)piperazin-1-yl)-2-((3bR,4aR)-3-(4-hydroxypiperidine-1-carbonyl)-3b,4,4a,5-tetahydro-1H-cyclopropa[3,4]cyclopenta[1,2-c]pyrazol-1-yl)ethanone]	0.86 nM
Cc1c(C(F)F)cccc1N1CCN(C(=O)Cn2nc(C(=O)N3CC[C@@H](O)[C@@H](F)C3)c3c2C[C@H]2C[C@@H]32)CC1 [Example 347, 1-(4-(3-(difluoromethyl)-2-methylphenyl)piperazin-1-yl)-2-((3bR,4aR)-3-((3S,4R)-3-fluoro-4-hydroxypiperidine-1-carbonyl)-3b,4,4a,5-tetrahydro-1H-cyclopropa[3,4]cyclopenta[1,2-c]pyrazol-1-yl)ethanone]	2.73 nM
Cc1c(C(F)F)cccc1N1CCN(C(=O)Cn2nc(C(=O)N3CCO[C@@H](CO)C3)c3c2C[C@H]2C[C@@H]32)CC1 [Example 350, 1-(4-(3-(difluoromethyl)-2-methylphenyl)piperazin-1-yl)-2-((3bR,4aR)-3-((R)-2-(hydroxymethyl)morpholine-4-carbonyl)-3b,4,4a,5-tetrahydro-1H-cyclopropa[3,4]cyclopenta[1,2-c]pyrazol-1-yl)ethanone]	5.66 nM
Cc1c(Cl)cccc1N1CCN(C(=O)Cn2nc(C(=O)N3CCC(O)C(C)C3)c3c2C[C@H]2C[C@@H]32)CC1 (stereo partly drawn) [Example 354, 1-(4-(3-chloro-2-methylphenyl)piperazin-1-yl)-2-((3bR,4aR)-3-(4-hydroxy-3-methylpiperidine-1-carbonyl)-3b,4,4a,5-tetrahydro-1H-cyclopropa[3,4]cyclopenta[1,2-c]pyrazol-1-yl)ethanone]	2.41 nM
CC(=O)NC1CCN(C(=O)c2nn(CC(=O)N3CCN(c4cccc(C)c4C)CC34CC4)c3c2[C@@H]2C[C@@H]2C3)CC1 [Example 356, N-(1-((3bR,4aR)-1-(2-(7-(2,3-dimethylphenyl)-4,7-diazaspiro[2.5]octan-4-yl)-2-oxoethyl)-3b,4,4a,5-tetrahydro-1H-cyclopropa[3,4]cyclopenta[1,2-c]pyrazole-3-carbonyl)piperidin-4-yl)acetamide]	0.73 nM
Cc1cccc(N2CCN(C(=O)Cn3nc(C(=O)N4CCC(O)(CF)CC4)c4c3C[C@H]3C[C@@H]43)C3(CC3)C2)c1C [Example 358]	1.59 nM
Cc1cccc(N2CCN(C(=O)Cn3nc(C(=O)N4CC[C@H](O)[C@@H](F)C4)c4c3C[C@H]3C[C@@H]43)C3(CC3)C2)c1C [Example 359]	1.93 nM
Cc1cccc(N2CCN(C(=O)Cn3nc(C(=O)N4CC[C@H](O)[C@H](F)C4)c4c3C[C@H]3C[C@@H]43)C3(CC3)C2)c1C [Example 364, 1-(7-(2,3-dimethylphenyl)-4,7-diazaspiro[2.5]octan-4-yl)-2-((3bR,4aR)-3-((3R,4S)-3-fluoro-4-hydroxypiperidine-1-carbonyl)-3b,4,4a,5-tetrahydro-1H-cyclopropa[3,4]cyclopenta[1,2-c]pyrazol-1-yl)ethanone]	1.47 nM
Cc1cccc(N2CCN(C(=O)Cn3nc(C(=O)N4CC[C@@H](O)[C@@H](F)C4)c4c3C[C@H]3C[C@@H]43)C3(CC3)C2)c1C [Example 365, 1-(7-(2,3-dimethylphenyl)-4,7-diazapspiro[2.5]octan-4-yl)-2-((3bR,4aR)-3-((3S,4R)-3-fluoro-4-hydroxypiperidine-1-carbonyl)-3b,4,4a,5-tetrahydro-1H-cyclopropa[3,4]cyclopenta[1,2-c]pyrazol-1-yl)ethanone]	1.19 nM
CC(=O)NC1CCN(C(=O)c2nn(CC(=O)N3CCN(c4cccc(Cl)c4C)CC3)c3c2CC(F)CC3)CC1 (stereo not drawn) [Example 367, N-(1-(1-(2-(4-(3-chloro-2-methylphenyl)piperazin-1-yl)-2-oxoethyl)-5-fluoro-4,5,6,7-tetrahydro-1H-indazole-3-carbonyl)piperidin-4-yl)acetamide]	2.89 nM
Cc1c(Cl)cccc1N1CCN(C(=O)Cn2nc(C(=O)N3CC[C@H](O)[C@H](F)C3)c3c2CCC(F)C3)CC1 (stereo partly drawn) [Example 369, 1-(4-(3-chloro-2-methylphenyl)piperazin-1-yl)-2-(5-fluoro-3-((3R,4S)-3-fluoro-4-hydroxypiperidine-1-carbonyl)-4,5,6,7-tetrahydro-1H-indazol-1-yl)ethan-1-one]	6.62 nM
Cc1c(Cl)cccc1N1CCN(C(=O)Cn2nc(C(=O)N3CCC(O)CC3)c3c2CCC(F)C3)CC1 (stereo not drawn) [Example 372, 1-(4-(3-chloro-2-methylphenyl)piperazin-1-yl)-2-(5-fluoro-3-(4-hydroxypiperidine-1-carbonyl)-4,5,6,7-tetrahydro-1H-indazol-1-yl)ethan-1-one]	2.32 nM
Cc1c(Cl)cccc1N1CCN(C(=O)Cn2nc(C(=O)N3CC[C@@H](O)[C@@H](F)C3)c3c2CCC(F)C3)CC1 (stereo partly drawn) [Example 375, 1-(4-(3-chloro-2-methylphenyl)piperazin-1-yl)-2-(5-fluoro-3-((3S,4R)-3-fluoro-4-hydroxypiperidine-1-carbonyl)-4,5,6,7-tetrahydro-1H-indazol-1-yl)ethan-1-one]	9.03 nM

The remaining compounds from weak to strong by IC50, led by results:

IC50	SMILES
15.7 nM	Cc1c(Cl)cccc1N1CCN(C(=O)Cn2nc(C(=O)N3CCN(C(=O)CO)CC3)c3c2CCC(F)C3)CC1 (stereo not drawn) [Example 371, 1-(4-(3-chloro-2-methylphenyl)piperazin-1-yl)-2-(5-fluoro-3-(4-(2-hydroxyacetyl)piperazine-1-carbonyl)-4,5,6,7-tetrahydro-1H-indazol-1-yl)ethan-1-one]
9.52 nM	Cc1c(Cl)cccc1N1CCN(C(=O)Cn2nc(C(=O)N3CC[C@@H](O)[C@@H](F)C3)c3c2CCC(F)C3)CC1 (stereo partly drawn) [Example 370, 1-(4-(3-chloro-2-methylphenyl)piperazin-1-yl)-2-(5-fluoro-3-((3S,4R)-3-fluoro-4-hydroxypiperidine-1-carbonyl)-4,5,6,7-tetrahydro-1H-indazol-1-yl)ethan-1-one]
5.17 nM	Cc1c(Cl)cccc1N1CCN(C(=O)Cn2nc(C(=O)N3CC[C@H](O)[C@H](F)C3)c3c2CCC(F)C3)CC1 (stereo partly drawn) [Example 374, 1-(4-(3-chloro-2-methylphenyl)piperazin-1-yl)-2-(5-fluoro-3-((3R,4S)-3-fluoro-4-hydroxypiperidine-1-carbonyl)-4,5,6,7-tetrahydro-1H-indazol-1-yl)ethan-1-one]
4.46 nM	Cc1c(C(F)F)cccc1N1CCN(C(=O)Cn2nc(C(=O)N3CCO[C@H](CO)C3)c3c2C[C@H]2C[C@@H]32)CC1 [Example 349, 1-(4-(3-(difluoromethyl)-2-methylphenyl)piperazin-1-yl)-2-((3bR,4aR)-3-((S)-2-(hydroxymethyl)morpholine-4-carbonyl)-3b,4,4a,5-tetrahydro-1H-cyclopropa[3,4]cyclopenta[1,2-c]pyrazol-1-yl)ethanone]
2.52 nM	Cc1cccc(N2CCN(C(=O)Cn3nc(C(=O)N4CCO[C@H](CO)C4)c4c3C[C@H]3C[C@@H]43)C3(CC3)C2)c1C [Example 363, 1-(7-(2,3-dimethylphenyl)-4,7-diazaspiro[2.5]octan-4-yl)-2-((3bR,4aR)-3-((S)-2-(hydroxymethyl)morpholine-4-carbonyl)-3b,4,4a,5-tetrahydro-1H-cyclopropa[3,4]cyclopenta[1,2-c]pyrazol-1-yl)ethanone]
2.16 nM	Cc1c(N2CCN(C(=O)Cn3nc(C(=O)N4CCO[C@H](CO)C4)c4c3C[C@H]3C[C@@H]43)CC2)cccc1C(F)(F)F [Example 342, 2-((3bR,4aR)-3-((S)-2-(hydroxymethyl)morpholine-4-carbonyl)-3b,4,4a,5-tetrahydro-1H-cyclopropa[3,4]cyclopenta[1,2-c]pyrazol-1-yl)-1-(4-(2-methyl-3-(trifluoromethyl)phenyl)piperazin-1-yl)ethanone]
1.91 nM	Cc1c(N2CCN(C(=O)Cn3nc(C(=O)N4CCO[C@@H](CO)C4)c4c3C[C@H]3C[C@@H]43)CC2)cccc1C(F)(F)F [Example 343, 2-((3bR,4aR)-3-((R)-2-(hydroxymethyl)morpholine-4-carbonyl)-3b,4,4a,5-tetrahydro-1H-cyclopropa [3,4]cyclopenta[1,2-c]pyrazol-1-yl)-1-(4-(2-methyl-3-(trifluoromethyl)phenyl)piperazin-1-yl)ethanone]
1.38 nM	Cc1c(C(F)F)cccc1N1CCN(C(=O)Cn2nc(C(=O)N3CC[C@H](O)[C@H](F)C3)c3c2C[C@H]2C[C@@H]32)CC1 [Example 348, 1-(4-(3-(difluoromethyl)-2-methylphenyl)piperazin-1-yl)-2-((3bR,4aR)-3-((3R,4S)-3-fluoro-4-hydroxypiperidine-1-carbonyl)-3b,4,4a,5-tetrahydro-1H-cyclopropa[3,4]cyclopenta[1,2-c]pyrazol-1-yl)ethanone]
